Test system: Hh-signalling cascade
Assay: Inhibition of SHh-induced alkaline phosphatase in C3H10T1/2 cells (Hh-signalling cascade inhibition)
Assay type: cell-based
Source text: C3H10T1/2 Cells were used for identification of inhibitors of SHh-protein signaling cascade. SHh-protein activates C3H10T1/2 cells, that leads to their osteogenic differentiation [1) Kinto N., Iwamoto M., Enomoto-Iwamoto M., Noji S., Ohuchi H., Yoshioka H., Kataoka H., Wada Y., Yuhao G., Takahashi H. E., Yoshiki S., Yamaguchi A. Fibroblasts expressing Sonic hedgehog induce osteoblast differentiation and ectopic bone formation. FEBS Lett. 1997; 404(2-3): 319-23. 2) Spinella-Jaegle S., Rawadi G., Kawai S., Gallea S., Faucheu C., Mollat P., Courtois B., Bergaud B., Ramez V., Blanchet A. M., Adelmant G., Baron R., Roman-Roman S. Sonic hedgehog increases the commitment of pluripotent mesenchymal cells into the osteoblastic lineage and abolishes adipocytic differentiation. J. Cell Sci. 2001; 114(Pt 11): 2085-94] and, in particular, to expression enhancement of alkaline phosphatase enzyme.
The cells were cultivated in DMEM medium with 10% embryonal calfish serum in incubator at 37° C., 100% humidity and 5% CO2 content. The cells were placed in 384-well plates and left for night. On the next day the tested compounds in concentration of 10 μM were added to the cells, incubated for 30 min, then recombinant (R & D Systems, USA) SHh protein in concentration of 0.3 μg/ml was added and incubation was continued for 3 days. Cells with DMSO instead of a test compound and cells without SHh protein were used as test control. For determination of the cell alkaline phosphatase activity the cells were lysed in the buffer containing 0.2% Triton-X100, lisates were incubated together with proluminescent substrate CSPD (Applied Biosystems, USA) and the resultant luminescence was measured using reader VICTOR^2V (PerkinElmer, USA).
The ability of the compounds to inhibit Hh-signalling cascade was determined using C3H10T1/2 cells in 384-well plates as described in example 1. The compounds were added in triplicates in various concentrations, prepared by multiple dilution of starting solutions (concentration dependences of cell alkaline phosphatase inhibition induced by the addition of tested compounds are shown in FIG. 1). Activity of the compounds was characterized by their concentrations produced half maximal inhibition of stimulation of cell alkaline phosphatase SHh (IC50).

[1] = Mus musculus, C3H 10T1/2, half maximal inhibition of SHh (0.3 μg/ml) stimulation of cell alkaline phosphatase

Row | IC50 [1] | IC50 (half maximal inhibition of SHh (0.3 μg/ml) stimulation of cell alkaline phosphatase) | SMILES
1 | < 5 µM | – | COc1ccc(C(=O)Nc2ccc(-c3cn4ccccc4n3)cc2)cc1 [III-1006, N-(4-(Imidazo[1,2-a]pyridin-2-yl)phenyl)-4-methoxybenzamide]
2 | > 50 µM | – | CC(=O)Nc1ccc(-c2cn3ccccc3n2)cc1 [III-1007, N-(4-(Imidazo[1,2-a]pyridin-2-yl)phenyl)acetamide]
3 | < 5 µM | – | Cc1cccn2cc(-c3ccc(NC(=O)Cc4ccccc4)cc3)nc12 [III-1013, N-[4-(8-Methylimidazo[1,2-a]pyridin-2-yl)phenyl]-2-phenylacetamide]
4 | < 0.5 µM | – | O=C(Nc1cccc(-c2cn3ccccc3n2)c1)c1ccc(F)cc1 [III-1015, 4-Fluoro-N-(3-(imidazo[1,2-a]pyridin-2-yl)phenyl)benzamide]
5 | < 0.5 µM | – | COc1ccc(C(=O)Nc2cccc(-c3cn4ccccc4n3)c2)cc1 [III-1018, N-(3-(Imidazo[1,2-a]pyridin-2-yl)phenyl)-4-methoxybenzamide]
6 | < 0.5 µM | – | COc1ccc(C(=O)Nc2cccc(-c3cn4c(C)cccc4n3)c2)cc1 [III-1019, 4-Methoxy-N-[3-(5-methylimidazo[1,2-a]pyridin-2-yl)phenyl]benzamide]
7 | < 0.5 µM | – | Cc1nc(-c2ccccc2)sc1C(=O)Nc1cccc(-c2cn3ccccc3n2)c1 [III-1030, 4-Methyl-2-phenylthiazol-5-carboxylic acid [3-(imidazo[1,2-a]pyridin-2-yl)phenyl]amide]
8 | < 50 µM | – | O=C(Nc1ccc(-c2cn3cccnc3n2)cc1)C1CCCC1 [IV-1002, Cyclopentanecarboxylic acid (4-imidazo[1,2-a]pyrimidin-2-ylphenyl)amide]
9 | < 0.5 µM | – | COc1ccccc1C(=O)Nc1ccc(-c2cn3cccnc3n2)cc1 [IV-1004, N-(4-(Imidazo[1,2-a]pyrimidin-2-yl)phenyl)-2-methoxybenzamide]
10 | < 50 µM | – | CCn1c(C(=O)N2CCC(C(=O)N3CCN(c4ccccc4)CC3)CC2)cc2sccc21 [V-1008, (4-Ethyl-4H-thieno[3,2-b]pyrrol-5-yl)[4-(4-phenyl-piperazine-1-carbonyl)piperidine-1-yl]methanone]
11 | – | < 5 µM | O=C(c1cc2sccc2n1Cc1ccc(Cl)cc1)N1CCC(C(=O)N2CCCC2)CC1 [V-1027, [4-(4-Chlorobenzyl)-4H-thieno[3,2-b]pyrrol-5-yl]-[4-(pyrrolidin-1-carbonyl)piperidin-1-yl]methanone]
12 | < 5 µM | – | O=C(NCc1ccccn1)C1CCN(C(=O)c2cc3sccc3n2Cc2ccc(F)cc2F)CC1 [V-1030, 1-[4-(2,4-Difluorobenzyl)-4H-thieno[3,2-b]pyrrole-5-carbonyl]piperidine-4-carboxylic acid [(pyridin-2-yl)methyl]amide]
13 | < 5 µM | – | O=C(NCc1cccnc1)C1CCN(C(=O)c2cc3sccc3n2Cc2ccc(F)cc2)CC1 [V-1031]
14 | < 0.5 µM | – | CCN(CC)CCCNC(=O)C1CCN(C(=O)c2cc3sccc3n2Cc2ccc(F)cc2)CC1 [V-1032, 1-[4-(4-Fluorobenzyl)-4H-thieno[3,2-b]pyrrole-5-carbonyl]piperidine-4-carboxylic acid 3-(diethylamino)propylamide]
15 | < 0.5 µM | – | Cc1ccc(CNC(=O)C2CCN(C(=O)c3cc4sccc4n3Cc3ccc(F)cc3)CC2)cc1 [V-1033, 1-[4-(4-Fluorobenzyl)-4H-thieno[3,2-b]pyrrole-5-carbonyl]piperidine-4-carboxylic acid [(4-methylphenyl)methyl]amide]
16 | < 0.5 µM | – | Cc1ccc(NC(=O)C2CCN(C(=O)c3cc4sccc4n3Cc3ccc(F)cc3)CC2)c(C)c1 [V-1034, 1-[4-(4-Fluorobenzyl)-4H-thieno[3,2-b]pyrrole-5-carbonyl]piperidine-4-carboxylic acid (2,4-dimethylphenyl)amide]
17 | < 0.5 µM | – | Cc1ccc(NC(=O)C2CCN(C(=O)c3cc4sccc4n3Cc3ccc(F)cc3)CC2)cc1C [V-1035, 1-[4-(4-Fluorobenzyl)-4H-thieno[3,2-b]pyrrole-5-carbonyl]piperidine-4-carboxylic acid (3,4-dimethylphenyl)amide]
